Assay results: patent US8148577B2, “Polyamines useful as anti-parasitic and anti-cancer therapeutics and as lysine-specific demethylase inhibitors” (The Johns Hopkins University, priority 2005, dated 2012)

Tests used:
Format in all cases: cell-based, human
[1] = system: H157 (non-small cell lung carcinoma) cells; experiment: 96 hr MTS dose response experiment in H157 cells; settings: a range means IC50 lies between the two tested concentrations
Protocol: MTS dose response experiments in H157, H82, and A549 cells following a 96 hr exposure with select compounds were performed. MTS is a standard colorimetric assay used for measuring metabolic activity in cells. MTS experiments were performed by CellTiter 96® AQueuos One Solution Cell Proliferation Assay from Promega Corporation. Briefly, the cells were seeded at 3000 cells/well on a 96 well tissue culture plate containing 100 ul of medium/well and allowed to attach overnight. The medium was then aspirated and replaced with 100 ul of fresh medium containing the appropriate concentration of the compound being tested and incubated for 96 hrs at 37° C. and 5% CO2. Compounds are routinely tested at concentrations ranging from 0.1 micromolar to 50 micromolar. Wells not containing the test compound were present and used as a control. Following treatment, 20 ul of MTS reagent was added to each well and incubated at 37° C. for 1.5 hrs. The absorbance of each well was then measured at 490 nm and used to determine the metabolic activity of the cells in the presence of the test compound, relative to the control. IC50 values for the test compounds were extracted based on the results.
Note that the results for a 72 hr exposure in addition to the 96 hr exposure are shown for compound 49-TDW-29C in the H157 cells. […] FIG. 1 depicts the results of a 96 hr MTS dose response experiments for compound 46-TDW-23c in H157, A549, H82 and Beas2B cells. FIG. 2 depicts the results of a 96 hr MTS dose response experiments for compound 49-TDW-9 in H157, A549, H82 and Beas2B cells. FIG. 3 depicts the results of a 96 hr MTS dose response experiments for compound 42-TDW-21c in H157, A549, H82 and Beas2B cells. FIG. 4 depicts the results of a 96 hr MTS dose response experiments for compound 46-TDW-19c in H157, A549, H82 and Beas2B cells. FIG. 5 depicts the results of a 96 hr MTS dose response experiments for compound 49-TDW-17c in H157, A549, H82 and Beas2B cells. FIG. 6 depicts the results of a 96 hr MTS dose response experiments for compound 40-TDW-37 in H157, A549, H82 and Beas2B cells. FIG. 7 depicts the results of a 96 hr MTS dose response experiments for compound 42-TDW-4 in H157, A549, H82 and Beas2B cells. FIG. 8 depicts the results of a 96 hr MTS dose response experiments for compound 49-TDW-29c in H157, A549, H82 and Beas2B cells. FIG. 9 depicts the results of a 96 hr MTS dose response experiments for compound 49-TDW-32c in H157, A549, H82 and Beas2B cells. FIG. 10 depicts the results of a 96 hr MTS dose response experiments for compound 46-TDW-35c in H157, A549, H82 and Beas2B cells. FIG. 11 depicts the results of a 96 hr MTS dose response experiments for compound 39-TDW-3 in H157, A549, and H82 cells. FIG. 12 depicts the results of a 96 hr MTS dose response experiments for compound 39-TDW-12c in […], and A549 cells. FIG. 13 depicts the results of a 96 hr MTS dose response experiments for compound 39-TDW-20c in H157, and H82 cells. FIG. 14 depicts the results of a 96 hr MTS dose response experiments for compounds 39-TDw-47c and 39-TDW-43 in H157 cells. FIG. 15 depicts the results of a 96 hr MTS dose response experiments for compounds 42-TDW-9, 42-TDW-4c/6, 40-TDW-35, 42-TDW-38 and BENSpm in H157 cells. FIG. 16 depicts the results of a 96 hr MTS dose response experiments for compounds 46-TDW-34c, 42-TDW-12, 40-TDW-48, 46-TDW-44c and BENSpm in H157 cells. FIG. 17 depicts the results of a 96 hr MTS dose response experiments for compounds 42-TDW-20c, 46-TDW-22, 46-TDW-39, 49-TDW-29c and BENSpm in H157 cells. FIG. 18 depicts the results of a 96 hr MTS dose response experiments for compounds 39-TDW-43, 42-TDW-48c, 46-TDW-9, 46-TDW-23c and BENSpm in H157 cells. FIG. 19 depicts the results of a 96 hr MTS dose response experiments for compounds 42-TDW-35c, 46-TDW-44 and BENSpm in H157 cells.

[2] = system: H157 (non-small cell lung carcinoma) cells; experiment: Polyamine levels in H157 cells following treatment; settings: for Polyamine Level, Spm: spermine (Spm)
Protocol: (§1) Putrescine, spermidine, and spermine polyamine levels in H157 and H82 cells following exposure to select compounds were performed. Polyamine levels were determined using the precolumn dansylation labeling, reverse-phase high-pressure liquid chromatography method as described by Kabra et al., J. Chromotography, 380:19 (1986). The results are show in Tables 6 and 11 for H157 and H82 cells respectively. The compound identifier, treatment concentration, observed polyamine level, and exposure time are listed in columns 1, 2, 3, and 4 respectively. Polyamine levels are reported as increased (inc), decrease (dec), or no change (N/C). In some case the specific levels of putrescine, spermidine, and/or spermine are listed.

H82 cells = experiment: Polyamine levels in H82 cells following treatment; settings: 24 hr
Protocol: as §1

[3] = Homo sapiens, NCI-H157, 96 hr exposure
[4] = 10 uM, 24 hr, inc = increased, dec = decrease, N/C = no change

| SMILES | IC50 [1, 3] | other results |
| --- | --- | --- |
| c1cc2ccc3cccc4c(CCCCNCCCNCCCNCCCNCCCCc5cc6cccc7ccc8cccc5c8c76)cc(c1)c2c34 [40-TDW-26c] | 10 to 50 µM |  |
| CCC(CC)CNCCCNCCCNCCCNCC(CC)CC [40-TDW-28] |  | IC50 ([1]; 96 hr exposure): 10 to 50 µM |
| Cc1c(CNCCCNCCCNCCCNCc2cccc(-c3ccccc3)c2C)cccc1-c1ccccc1 [40-TDW-48] |  | IC50 ([1]; 96 hr exposure): 1 to 5 µM |
| c1ccc(-c2ccccc2CNCCCCNCCCNCc2ccccc2-c2ccccc2)cc1 [42-TDW-35c] |  | IC50 ([1]; 96 hr exposure): 1 to 5 µM |
| CCNCCCNCCCCNCCC(c1ccccc1)c1ccccc1 [42-TDW-40c] | 5 to 10 µM |  |
| CC(CCNCCCNCCC(C)NCc1cc(F)c(F)cc1F)NCc1cc(F)c(F)cc1F (centres unmarked) [44-DHEJ-5C] | > 31 µM |  |
| Fc1cc(F)c(CNCCCNCCCNCCCNCc2cc(F)c(F)cc2F)cc1F [44-DHEJ-10C] | > 29 µM |  |
| O=C(CCc1nc2ccccc2[nH]1)NCCCNCCCNCCCNC(=O)CCc1nc2ccccc2[nH]1 [44-DHEJ-38] | 21.9 µM |  |
| O=C(NCCCNCCCNCCCNC(=O)c1nc2ccccc2[nH]1)c1nc2ccccc2[nH]1 [44-DHEJ-40C] | > 26.1 µM |  |
| C#CC(=O)NCCCNCCCNCCCNC(=O)C#C [44-DHEJ-41] |  | IC50 ([1]; 96 hr exposure): 7.16 to 35.8 µM |
| CCNCCCNCCCCCNCCCNCC [44-DHEJ-48C] | > 50 µM |  |
| CCNCCCNCCCCCNCCCN [44-DHEJ-49] | 1 to 5 µM |  |
| CCC(CC)CNCCCCNCCCNCC(CC)CC [46-TDW-12] | > 50 µM |  |
| NCCCCCCNCCCCCCNCCCc1nc2ccccc2[nH]1 [50-DHEJ-3C] | > 50 µM |  |
| COc1cc(C(C)(C)C)c(C(C)(C)C)cc1CNC(C)CCNCCCNCCC(C)NCc1cc(C(C)(C)C)c(C(C)(C)C)cc1OC (centres unmarked) [51-DHEJ-8] | > 50 µM |  |
| CC(CCNCCCCCCCNCCC(C)NCC(F)(F)F)NCC(F)(F)F (centres unmarked) [51-DHEJ-18] | 10 to 50 µM |  |
| CCCCNC(C)CCNCCCCCCCNCCC(C)NCC (centres unmarked) [51-DHEJ-49C] | > 50 µM |  |
| CCNCCCNCCCCCNCCCNCC(C)CC (centres unmarked) [51-DHEJ-A] | 10 to 50 µM |  |
| CCNCCCCCNCCCNCCCNCC [51-DHEJ-B] | > 50 µM |  |
| CCNCCCNCCCNCCCCCN [51-DHEJ-C] | > 50 µM |  |

| SMILES | IC50 [1, 3] | other results |
| --- | --- | --- |
| CCNCCCNCCCNCCC(C)N (centres unmarked) [55-DHEJ-7C] | > 50 µM |  |
| CCNCCCNCCCCC(C)NCCCNCC (centres unmarked) [55-DHEJ-24C] | > 50 µM |  |
| CC(N)CCNCCCNCc1ccc(-c2ccccc2)cc1 (centres unmarked) [55-DHEJ-26] | > 50 µM |  |
| CCNCCCN(CCCNCC)CCCNCC [55-DHEJ-31C] | > 50 µM |  |
| CC(CCNCCCNCCC(C)NCC1CC1)NCC1CC1 (centres unmarked) [55-DHEJ-35C] | 10 to 50 µM |  |
| CCNCCCNCCCNCCC(C)NCC1CC1 (centres unmarked) [55-DHEJ-37C] | > 50 µM |  |
| CNC(=N)NCCCNCCCNCCCNC(=N)NC [B179-1] | 10 to 50 µM |  |
| CNC(=N)NCCCNCCCCCCCNCCCNC(=N)NC [B181] | 5 to 10 µM |  |
| C/N=C(\NC)NCCCNCCCNCCCN/C(=N/C)NC [B182] | 5 to 10 µM |  |
| N=C(NCCCNCCCNCCCNC(=N)Nc1ccccc1)Nc1ccccc1 [B188-2] | 5 to 10 µM |  |
| N=C(NCCCNCCCCCCCNCCCNC(=N)Nc1ccccc1)Nc1ccccc1 [B205′-1] | 50 µM |  |
| CCNCCCNCCCNCCCNCC [BENSpm, reference compound] |  | Polyamine Level [2, 4]: N/C |
| C1CCCC(CNCCCNCCCNCCCNCC2CC2)CC1 [CPCHENSpm] |  | Polyamine Level (H82 cells; 10 uM): slight inc, and N/C; Polyamine Level [2, 4]: slight dec; Polyamine Level, Spm ([2]; 10 uM, 24 hr): inc |
| CCNCCCNCCCNCCCNC(C)CC (centres unmarked) [DG-52-27C] | 0.5 to 1 µM |  |
| CCNCCCNCCCNCCCNC(C)C [DG-52-28] | 1 µM |  |
| CC(C)CNCCCNCCCNCCCNCC(C)C [DG-52-29C] | > 50 µM |  |
| CC(C)=CCNCCCNCCCNCCCNCC=C(C)C [SV-53-18C2] |  | IC50 ([1]; 96 hr exposure): 10 to 50 µM |
| C1CCC(CNCCCNCC2CCCC(CNCCCNCC3CCCCC3)C2)CC1 (centres unmarked) [UNS-31-7A] |  | Polyamine Level (H82 cells; 10 uM): slight dec; Polyamine Level [2, 4]: slight dec |
| NC1CCC(NCCCNCC2CC2)C1 (centres unmarked) [UNS-31-21c] |  | Polyamine Level (H82 cells; 10 uM): slight inc; Polyamine Level [2, 4]: dec; Polyamine Level, Spm ([2]; 10 uM, 24 hr): same |
| N=C(NCCCNCCCCNCCCNC(=N)NCCC(c1ccccc1)c1ccccc1)NCCC(c1ccccc1)c1ccccc1 [XBI-54-8B] | > 50 µM |  |

| SMILES | IC50 [1, 3] | other results |
| --- | --- | --- |
| N=C(NCCCNCCCCNCCCNC(=N)NCC(c1ccccc1)c1ccccc1)NCC(c1ccccc1)c1ccccc1 [XBI-54-9B] | > 50 µM |  |
| N=C(NCCCNCCCCCCCNCCCNC(=N)NC(=N)NCC(c1ccccc1)c1ccccc1)NC(=N)NCC(c1ccccc1)c1ccccc1 [XBI-54-11C] | 10 to 50 µM |  |
| N=C(NCCCNCCCNCCCNC(=N)NC(=N)NCC(c1ccccc1)c1ccccc1)NC(=N)NCC(c1ccccc1)c1ccccc1 [XBI-54-12C] | 10 to 50 µM |  |
| N=C(NCCCNCCCNCCCNC(=N)NC(=N)NCCC(c1ccccc1)c1ccccc1)NC(=N)NCCC(c1ccccc1)c1ccccc1 [XBI-54-12D] | 10 to 50 µM |  |
| N=C(NCCCNCCCCCCCNCCCNC(=N)NC(=N)NCCC(c1ccccc1)c1ccccc1)NC(=N)NCCC(c1ccccc1)c1ccccc1 [XBI-54-13B] | 10 to 50 µM |  |
| N=C(NCCCNCCCCNCCCNC(=N)NC(=N)NCCC(c1ccccc1)c1ccccc1)NC(=N)NCCC(c1ccccc1)c1ccccc1 [XBI-54-13D] | 10 to 50 µM |  |
| N=C(NCCCNCCCCNCCCNC(=N)NC(=N)NCC(c1ccccc1)c1ccccc1)NC(=N)NCC(c1ccccc1)c1ccccc1 [XBI-54-14B] | 10 to 50 µM |  |
| NCCCCCNCCCNCCCNCCCCN [YZ33035] | > 10 µM |  |
| NCCCCCNCCCNCCCNCCCCCN [YZ33041] | > 10 µM |  |
| CCNCCCNCCCNCCCCN [YZ33046] | > 10 µM |  |
| CCNCCCNCCCNCCCCNCC1CC1 [YZ33049] | ~1 µM |  |
| CCCCNCCCCNCCCCNCCCNCC [YZ33049c] | 1 to 10 µM |  |
| CCNCCCCNCCCNCCCNCC [YZ33050c] | ~1 µM |  |
| CCCCNCCCNCCCNCCCNCCCC [ZQW-14c] |  | Polyamine Level (H82 cells; 10 uM): slowly dec; Polyamine Level [2, 4]: slowly dec |
| CCCCNCCCNCCCNCCCN [ZQW-16c] |  | Polyamine Level (H82 cells; 0-10 uM): slight inc; Polyamine Level (H82 cells; 10 uM): dec ~50%; Polyamine Level [2, 4]: slowly inc |
| CCCCNCCCNCCCNCCCNCC [ZQW-19] |  | Polyamine Level (H82 cells; 0-10 uM): slow dec; Polyamine Level (H82 cells; 10 uM): dec ~50%; Polyamine Level ([2]; 1 uM, 24 hr): N/C; Polyamine Level [2, 4]: dec ~50% |
| CCNCCCN(CCCN)CCCCCCCNCCCN [ZQW-27-9] |  | Polyamine Level (H82 cells; 10 uM): dec; Polyamine Level [2, 4]: N/C |
| CCNCCCN(CCCN)CCCCCCCNCCCNCC1CCCCCC1 [ZQW-27-11C] |  | Polyamine Level (H82 cells; 10 uM): dec ~50%; Polyamine Level ([2]; 10 uM, 96 hr): N/C |
